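Test compounds were applied to cells in 96-well plates for 48 hours at 5 doses. The concentration for 50% growth inhibition is given as GI50. TGI: total growth inhibition.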
Tests used:
Experiment in all cases: DTP human tumour cell line panel, 48 h
T-47D breast = tested on: T-47D breast
OVCAR-5 ovarian = tested on: OVCAR-5 ovarian
OVCAR-4 ovarian = tested on: OVCAR-4 ovarian
DU-145 prostate = tested on: DU-145 prostate
SNB-19 CNS = tested on: SNB-19 CNS
M14 melanoma = tested on: M14 melanoma
UACC-62 melanoma = tested on: UACC-62 melanoma
OVCAR-8 ovarian = tested on: OVCAR-8 ovarian
UO-31 renal = tested on: UO-31 renal
EKVX NSCLC = tested on: EKVX NSCLC

Row | SMILES | GI50 (T-47D breast) | TGI (T-47D breast) | GI50 (OVCAR-5 ovarian) | TGI (OVCAR-5 ovarian) | GI50 (OVCAR-4 ovarian) | TGI (OVCAR-4 ovarian) | GI50 (DU-145 prostate) | TGI (DU-145 prostate) | GI50 (SNB-19 CNS) | TGI (SNB-19 CNS) | GI50 (M14 melanoma) | TGI (M14 melanoma) | GI50 (UACC-62 melanoma) | TGI (UACC-62 melanoma) | GI50 (OVCAR-8 ovarian) | TGI (OVCAR-8 ovarian) | GI50 (UO-31 renal) | TGI (UO-31 renal) | TGI (EKVX NSCLC) | GI50 (EKVX NSCLC)
1 | NC(N)=N/N=C(/c1ccccc1)c1ccc(Cl)cc1 | > 100 µM | > 100 µM | 47.3 µM | > 100 µM | 19 µM | > 100 µM | 4.89 µM | 24.8 µM | 87.2 µM | > 100 µM | 12 µM | 78.4 µM | 22.4 µM | > 100 µM | 36.4 µM | > 100 µM | 17.2 µM | > 100 µM | – | –
2 | CC1C=CC(C)C2(O)C(=O)NC(O)C12 (configuration not stated) | – | – | – | – | – | > 100 µM | – | – | – | > 100 µM | – | > 100 µM | – | > 100 µM | – | > 100 µM | – | > 100 µM | > 100 µM | –
3 | Cc1ccc(-c2nc3c(C(=O)NCCN(C)C)cccc3[nH]2)cc1 | – | – | – | 45.2 µM | – | 85.3 µM | – | – | – | > 100 µM | – | 29.2 µM | – | 32.5 µM | – | 78.3 µM | – | 22.9 µM | 69.5 µM | –
4 | N#CCc1ccc(/C(C#N)=C2/OC(=N)C(c3ccc(CC#N)cc3)C2=O)cc1 (configuration not stated) | – | – | – | > 100 µM | – | > 100 µM | – | – | – | > 100 µM | – | > 100 µM | – | > 100 µM | – | > 100 µM | – | > 100 µM | > 100 µM | –
5 | O=C(Nc1ccc([N+](=O)[O-])cc1C(=O)O)c1ccc([N+](=O)[O-])cc1 | – | – | – | > 100 µM | – | > 100 µM | – | – | – | > 100 µM | – | > 100 µM | – | > 100 µM | – | > 100 µM | – | > 100 µM | > 100 µM | –
6 | O=C(CC/C(CC(=O)c1ccc(Cl)cc1)=N/O)Nc1ccc(Cl)c(Cl)c1 | – | – | – | > 100 µM | – | > 100 µM | – | – | – | > 100 µM | – | > 100 µM | – | > 100 µM | – | > 100 µM | – | > 100 µM | > 100 µM | –
7 | CCOC(=O)N[C@H]1CCc2cc(O)c(OC)c(OC)c2-c2ccc(SC)c(=O)cc21 | – | – | – | > 100 µM | – | > 100 µM | – | – | – | > 100 µM | – | 51.5 µM | – | > 100 µM | – | > 100 µM | – | > 100 µM | > 100 µM | –
8 | Cc1cc(Cl)ccc1NC(=O)CC1SC(N)=NC1=O (configuration not stated) | – | – | – | > 100 µM | – | > 100 µM | – | – | – | > 100 µM | – | > 100 µM | – | > 100 µM | – | > 100 µM | – | > 100 µM | > 100 µM | –
9 | CCC[CH2][Sn]1([CH2]CCC)[O]C(=O)c2cccc(OC)c2[O]1 | – | – | 1.55 µM | 2.9 µM | 1.05 µM | 2.25 µM | – | – | 0.799 µM | 2.13 µM | 0.422 µM | 1.56 µM | 0.312 µM | 1.18 µM | 0.469 µM | 1.71 µM | 0.806 µM | 2.07 µM | 2.7 µM | 1.31 µM
10 | COc1ccc2c(c1)C(=O)/C(=C/c1ccc([N+](=O)[O-])s1)O2 | 0.248 µM | 0.728 µM | 1.6 µM | 3.34 µM | 0.34 µM | 1.14 µM | 1.79 µM | > 100 µM | 0.522 µM | 2 µM | 0.358 µM | 1.31 µM | 0.311 µM | 1.16 µM | 0.362 µM | > 100 µM | 0.232 µM | 0.614 µM | – | –
11 | Cc1ccc(NC(=O)COC(=O)c2cccc3c(=O)c4ccccc4[nH]c23)cc1 | – | – | – | – | – | > 100 µM | – | – | – | > 100 µM | – | > 100 µM | – | > 100 µM | – | > 100 µM | – | 42.9 µM | > 100 µM | –
12 | CCCCCCCCCCCCCCCCOC(=O)c1c(C)[nH]c(/C=C2\N=C(c3ccc[nH]3)C=C2OC)c1C | 0.433 µM | 12.8 µM | 0.718 µM | – | 2.71 µM | 53.6 µM | 0.406 µM | > 56.5 µM | 11.8 µM | 80.3 µM | 0.152 µM | 0.452 µM | 0.235 µM | 0.62 µM | 0.384 µM | 15 µM | 1.21 µM | 17.1 µM | – | –
13 | c1ccc2c(-c3nc4ccccc4[nH]3)cccc2c1 | 6.06 µM | > 100 µM | 8.35 µM | > 100 µM | 10.9 µM | > 100 µM | 3.04 µM | 9.29 µM | 4.26 µM | 40.4 µM | 1.99 µM | 12 µM | 1.99 µM | 27.3 µM | 4.09 µM | 33.3 µM | 4.72 µM | 33.3 µM | – | –
14 | O=C1C2C(C(=O)N1c1ccccc1)C1(c3ccccc3)OC2(c2ccccc2)c2ccccc21 (configuration not stated) | – | – | – | > 100 µM | – | > 100 µM | – | – | – | > 100 µM | – | > 100 µM | – | > 100 µM | – | > 100 µM | – | > 100 µM | > 100 µM | –

— PubChem BioAssay (NCI)
